# Results taken from PubChem BioAssay (NCI).
# Values joined by “and” are separate entries in the source; they are usually repeats but may differ in a detail not shown here. Identical values can stand only once.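 How tested: cells in 96-well plates exposed to compound for 48 hours at five concentrations. GI50: concentration for 50% inhibition of growth. TGI: total growth inhibition.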
# System: NCI-H460 lung
# Assay: DTP human tumour cell line panel, 48 h
Compound,GI50,TGI
c1ccc(-c2n(Cc3ccc4ccccc4n3)cc[n+]2Cc2ccc3ccccc3c2)cc1,1.79 µM,5.8 µM
O=C(Nc1cccc(C(F)(F)F)c1)Nc1cccc(C(F)(F)F)c1,0.441 µM,5.73 µM
CC(C)(C)[Si](C)(C)OC1[C@@H](O[Si](C)(C)C(C)(C)C)[C@@H](CNC(=O)NC(=O)C(F)(F)F)O[C@H]1n1cnc2c(NC(=O)Nc3ccccc3)ncnc21 (some centres undefined),6.39 µM,15.7 µM
CCOC(=O)n1cc(C2=C(c3ccc(OC)c(OC)c3)COC2=O)c2ccccc21,0.122 µM,18.3 µM
CC(=C(c1ccc(OCCN2CCCCC2)cc1)c1ccc(OCCN2CCCCC2)cc1)c1ccc(Cl)cc1,0.452 µM,0.844 µM
C=C(C)C(=O)O[C@@H]1C[C@@]2(C)O[C@@H]2C[C@H](O)/C(C)=C/[C@H]2OC(=O)C(=C)[C@@H]21,,> 100 µM
C=CC(=O)Nc1cc(Nc2nccc(-c3cn(C)c4ccccc34)n2)c(OC)cc1N(C)CCN(C)C,2.18 µM and 2.14 µM,5.15 µM and 6.09 µM
CC(=O)OC1(C)N=NC2(CCCCC2)O1 (centres undefined),,> 100 µM
Cc1ccc(-c2nc(N3CCNCC3)c3oc(-c4ccc(C)cc4)nc3n2)cc1,2.03 µM,4.41 µM
[O-][Cl+3]([O-])([O-])[O-].[O]=[Ru]=[O].c1ccc(-c2ccccn2)nc1.c1ccc(-c2ccccn2)nc1,56.1 µM,> 100 µM
C=C1C(=O)O[C@H]2[C@H]1CC/C(CNC(=O)c1cc3ccccc3[nH]1)=C\CC[C@@]1(C)O[C@@H]21,4.09 µM,17.3 µM
Cc1cc2c(cc1C)[n+](=O)c(C(=O)c1ccccc1)c(C(F)F)n2[O-],5 µM,> 100 µM
COc1cc2c(cc1OC)C(Cl)C(c1ccc(F)cc1)=C2Cl (centres undefined),,24.8 µM
CCOC(=O)C1Sc2ccccc2N=C1C (centres undefined),,> 100 µM

# System: HT29 colon
# Assay: DTP human tumour cell line panel, 48 h
Compound,TGI,GI50
C[C@@]1(O)CC[C@]2(C)C3CCCC3[C@H]12 (some centres undefined),> 100 µM,
CC[C@@H](c1ccc(O)c(O)c1)[C@@H](CC)c1ccc(O)c(O)c1,58.2 µM,11.9 µM
O=C1OCC2=C1C(c1cccc(Br)c1)c1cc3c(cc1N2CCO)OCCO3 (centres undefined),0.233 µM,0.0507 µM
COc1cc(-c2nn(-c3cccc(NC(=O)c4ccccc4)c3)cc2-c2ccncc2)ccc1Cl,> 45 µM,0.365 µM
Cc1cc(Nc2ccc(C)c(Cl)c2)n2nc(C(F)(F)F)nc2n1,> 100 µM,26.6 µM
COc1ccc(Cn2c(Br)c3c(c2Br)-c2nc(N)sc2CC3)cc1,13.2 µM,4.14 µM
CC(=O)[O-].CC(=O)[O-].O=C(N/N=C/c1cc(Cl)cc(Cl)c1O)c1ccncc1.[Cu+2],> 100 µM,
O=C1CSC(=S)N1/N=C/c1ccc(Cl)c([N+](=O)[O-])c1,> 100 µM,
O=C(Nc1nc(=S)[nH][nH]1)C(=O)C(C(=O)c1ccc2ccccc2c1)C1OC(=O)c2ccccc21 (centres undefined),> 100 µM,
CCCCCCCCCCSC(=N)N (tested in a mixture with another compound),4.34 µM,1.78 µM
CCOc1ccc(NC2=CC(=O)C(=O)c3ccccc32)cc1,15.8 µM,
Cc1nc(-c2nc(C)c(C(=O)NNC(=O)C[n+]3ccccc3)s2)sc1C(=O)NNC(=O)C[n+]1ccccc1,> 100 µM,
O=C1c2ccccc2C(=O)c2c(/C=C\N3CCCCC3)ccnc21,15.1 µM,
C=C1C[C@H](O)[C@H](Br)C(C)(C)[C@@]12CCC(C)=C(Cl)C2,1.45 µM,0.26 µM
Cc1ccc(S(=O)(=O)N2CCC2c2ccccc2)cc1 (centres undefined),> 100 µM,
c1ccc(-c2n(Cc3ccc4ccccc4n3)cc[n+]2Cc2ccc3ccccc3c2)cc1,4.59 µM,0.979 µM
O=C(Nc1cccc(C(F)(F)F)c1)Nc1cccc(C(F)(F)F)c1,6.06 µM,0.84 µM
CC(C)(C)[Si](C)(C)OC1[C@@H](O[Si](C)(C)C(C)(C)C)[C@@H](CNC(=O)NC(=O)C(F)(F)F)O[C@H]1n1cnc2c(NC(=O)Nc3ccccc3)ncnc21 (some centres undefined),11.1 µM,4.33 µM
CCOC(=O)n1cc(C2=C(c3ccc(OC)c(OC)c3)COC2=O)c2ccccc21,> 100 µM,0.0364 µM
CC(=C(c1ccc(OCCN2CCCCC2)cc1)c1ccc(OCCN2CCCCC2)cc1)c1ccc(Cl)cc1,0.779 µM,0.35 µM
C=C(C)C(=O)O[C@@H]1C[C@@]2(C)O[C@@H]2C[C@H](O)/C(C)=C/[C@H]2OC(=O)C(=C)[C@@H]21,> 100 µM,
C=CC(=O)Nc1cc(Nc2nccc(-c3cn(C)c4ccccc34)n2)c(OC)cc1N(C)CCN(C)C,4.07 µM and 3.24 µM,1.84 µM and 1.51 µM
CC(=O)OC1(C)N=NC2(CCCCC2)O1 (centres undefined),> 100 µM,
Cc1ccc(-c2nc(N3CCNCC3)c3oc(-c4ccc(C)cc4)nc3n2)cc1,3.42 µM,1.88 µM
[O-][Cl+3]([O-])([O-])[O-].[O]=[Ru]=[O].c1ccc(-c2ccccn2)nc1.c1ccc(-c2ccccn2)nc1,> 100 µM,> 100 µM
C=C1C(=O)O[C@H]2[C@H]1CC/C(CNC(=O)c1cc3ccccc3[nH]1)=C\CC[C@@]1(C)O[C@@H]21,3.09 µM,1.11 µM
Cc1cc2c(cc1C)[n+](=O)c(C(=O)c1ccccc1)c(C(F)F)n2[O-],> 100 µM,17.2 µM
COc1cc2c(cc1OC)C(Cl)C(c1ccc(F)cc1)=C2Cl (centres undefined),32.5 µM,
CCOC(=O)C1Sc2ccccc2N=C1C (centres undefined),> 100 µM,

# System: MALME-3M melanoma
# Assay: DTP human tumour cell line panel, 48 h
Compound,TGI,GI50
C[C@@]1(O)CC[C@]2(C)C3CCCC3[C@H]12 (some centres undefined),> 100 µM,
CC[C@@H](c1ccc(O)c(O)c1)[C@@H](CC)c1ccc(O)c(O)c1,19.8 µM,3.91 µM
O=C1OCC2=C1C(c1cccc(Br)c1)c1cc3c(cc1N2CCO)OCCO3 (centres undefined),20.8 µM,0.0288 µM
COc1cc(-c2nn(-c3cccc(NC(=O)c4ccccc4)c3)cc2-c2ccncc2)ccc1Cl,,0.344 µM
Cc1cc(Nc2ccc(C)c(Cl)c2)n2nc(C(F)(F)F)nc2n1,97.9 µM,30.4 µM
COc1ccc(Cn2c(Br)c3c(c2Br)-c2nc(N)sc2CC3)cc1,19.9 µM,5.22 µM
CC(=O)[O-].CC(=O)[O-].O=C(N/N=C/c1cc(Cl)cc(Cl)c1O)c1ccncc1.[Cu+2],> 100 µM,
O=C1CSC(=S)N1/N=C/c1ccc(Cl)c([N+](=O)[O-])c1,40.4 µM,
O=C(Nc1nc(=S)[nH][nH]1)C(=O)C(C(=O)c1ccc2ccccc2c1)C1OC(=O)c2ccccc21 (centres undefined),> 100 µM,
CCCCCCCCCCSC(=N)N (tested in a mixture with another compound),5.07 µM,2.24 µM
CCOc1ccc(NC2=CC(=O)C(=O)c3ccccc32)cc1,3.56 µM,
Cc1nc(-c2nc(C)c(C(=O)NNC(=O)C[n+]3ccccc3)s2)sc1C(=O)NNC(=O)C[n+]1ccccc1,> 100 µM,
O=C1c2ccccc2C(=O)c2c(/C=C\N3CCCCC3)ccnc21,1.67 µM,
C=C1C[C@H](O)[C@H](Br)C(C)(C)[C@@]12CCC(C)=C(Cl)C2,2.3 µM,0.31 µM
Cc1ccc(S(=O)(=O)N2CCC2c2ccccc2)cc1 (centres undefined),> 100 µM,
c1ccc(-c2n(Cc3ccc4ccccc4n3)cc[n+]2Cc2ccc3ccccc3c2)cc1,2.78 µM,0.81 µM
O=C(Nc1cccc(C(F)(F)F)c1)Nc1cccc(C(F)(F)F)c1,3.92 µM,1.36 µM
CC(C)(C)[Si](C)(C)OC1[C@@H](O[Si](C)(C)C(C)(C)C)[C@@H](CNC(=O)NC(=O)C(F)(F)F)O[C@H]1n1cnc2c(NC(=O)Nc3ccccc3)ncnc21 (some centres undefined),19.5 µM,10.4 µM
CCOC(=O)n1cc(C2=C(c3ccc(OC)c(OC)c3)COC2=O)c2ccccc21,> 100 µM,0.0666 µM
CC(=C(c1ccc(OCCN2CCCCC2)cc1)c1ccc(OCCN2CCCCC2)cc1)c1ccc(Cl)cc1,0.798 µM,0.419 µM
C=C(C)C(=O)O[C@@H]1C[C@@]2(C)O[C@@H]2C[C@H](O)/C(C)=C/[C@H]2OC(=O)C(=C)[C@@H]21,57.2 µM,
C=CC(=O)Nc1cc(Nc2nccc(-c3cn(C)c4ccccc34)n2)c(OC)cc1N(C)CCN(C)C,3.97 µM and 3.28 µM,2.16 µM and 1.71 µM
CC(=O)OC1(C)N=NC2(CCCCC2)O1 (centres undefined),> 100 µM,
Cc1ccc(-c2nc(N3CCNCC3)c3oc(-c4ccc(C)cc4)nc3n2)cc1,18.9 µM,7.23 µM
[O-][Cl+3]([O-])([O-])[O-].[O]=[Ru]=[O].c1ccc(-c2ccccn2)nc1.c1ccc(-c2ccccn2)nc1,> 100 µM,> 100 µM
C=C1C(=O)O[C@H]2[C@H]1CC/C(CNC(=O)c1cc3ccccc3[nH]1)=C\CC[C@@]1(C)O[C@@H]21,3.6 µM,1.78 µM
Cc1cc2c(cc1C)[n+](=O)c(C(=O)c1ccccc1)c(C(F)F)n2[O-],62.9 µM,23.2 µM
COc1cc2c(cc1OC)C(Cl)C(c1ccc(F)cc1)=C2Cl (centres undefined),28.7 µM,
